Measured values taken from patent US11236059B2, “Targeted cytotoxic ratjadone derivatives and conjugates thereof” (HELMHOLTZ-ZENTRUM FUER INFEKTIONSFORSCHUNG GMBH, priority 2017, dated 2022).

System: KB 3.1 (DSMZ ACC 158) cells
Experiment: Cell proliferation assay under folate free conditions
Type: cell-based
Conditions: RPMI-medium without folic acid + 10% dialyzed fetal calf serum; MTT assay after 1, 2 and 5 days (day of the value not given); read-out: IC50 [nM] KB 3.1 (Folate-Ratjadone Conjugates)
Protocol: KB 3.1 (DSMZ ACC 158) cells were cultivated at 37° C. and 10% C002 in RMPI-medium without folic acid (Gibco) with 10% fetal calf serum (Gibco). 120 μL of suspended cells (100.000/mL) were seeded in wells of 96-well plates and after 24 h at 37° C. and 10% CO2 the medium was removed, the cells were washed with PBS and RPMI-medium without folic acid (Gibco)+10% dialyzed fetal calf serum (Sigma) were added to the cells, before after additional 24 h at 37° C. and 10% C002 60 μL of serial dilutions of the test compound were given to cells. After 1, 2 and 5 days of incubation growth inhibition (IC50) was determined using an MTT assay.^[64]

`C/C=C/[C@@H]1O[C@H]([C@@H](/C=C/C=C(\C)C[C@@H](C)/C=C(C)\C=C\[C@H]2CC=CC(=O)O2)NC(=O)CCSSC[C@H](NC(=O)CC[C@H](NC(=O)c2ccc(NCc3cnc4nc(N)nc(O)c4n3)cc2)C(=O)O)C(=O)O)C[C@@H](O)[C@@H]1C` [FA-SS-16R-Aminoratjadone, N^2-(4-(((2-amino-4-hydroxypteridin-6-yl)methyl)amino)benzoyl)-N^5-((R)-1-carboxy-2-((3-(((1R,2E,4E,7R,8Z,10E)-1-((2S,4R,5S,6S)-4-hydroxy-5-methyl-6-((E)-prop-1-en-1-yl)tetrahydro-2H-pyran-2-yl)-5,7,9-trimethyl-11-((R)-6-oxo-3,6-dihydro-2H-pyran-2-yl)undeca-2,4,8,10-tetraen-1-yl)amino)-3-oxopropyl)disulfaneyl)ethyl)-L-glutamine] showed an IC50 of 295 nM.
Work on `C/C=C/[C@@H]1O[C@H](C(/C=C/C=C(\C)C[C@@H](C)/C=C\C=C(/C)[C@H]2CC=CC(=O)O2)NC(=O)OCc2ccc(NC(=O)[C@H](CCCNC(N)=O)NC(=O)[C@@H](NC(=O)OC[C@@H]3[C@@H]4CCc5nnn(-c6ccc(C(=O)NCCCC[C@H](NC(=O)[C@H](CC(=O)O)NC(=O)[C@H](CC(=O)O)NC(=O)[C@H](CCCCNC(=O)c7ccc(-n8nnc9c8CC[C@H]8[C@@H](CC9)[C@H]8COC(=O)N[C@H](C(=O)N[C@@H](CCCNC(N)=O)C(=O)Nc8ccc(COC(=O)NC(/C=C/C=C(\C)C[C@@H](C)/C=C\C=C(/C)[C@H]9CC=CC(=O)O9)[C@@H]9C[C@@H](O)[C@H](C)[C@H](/C=C/C)O9)cc8)C(C)C)cc7)NC(=O)[C@@H](CC(=O)O)NC(=O)[C@@H](CC(=O)O)NC(=O)CC[C@H](NC(=O)c7ccc(NCc8cnc9nc(N)nc(O)c9n8)cc7)C(=O)O)C(=O)O)cc6)c5CC[C@@H]43)C(C)C)cc2)C[C@@H](O)[C@@H]1C` (stereo partly drawn) [FA-4-(Val-Cit-PABA-16R-Aminoratjadone)2] yielded an IC50 of 148 nM.
For `C/C=C/[C@@H]1O[C@H]([C@@H](/C=C/C=C(\C)C[C@@H](C)/C=C(C)\C=C\[C@H]2CC=CC(=O)O2)NC(=O)OCCc2cn(CCC[C@H](NC(=O)[C@@H](CC(=O)O)NC(=O)[C@@H](CC(=O)O)NC(=O)[C@@H](CC(=O)O)NC(=O)CC[C@H](NC(=O)c3ccc(NCc4cnc5nc(N)nc(O)c5n4)cc3)C(=O)O)C(=O)N[C@H](CC(=O)O)C(=O)N[C@H](CC(=O)O)C(=O)N[C@H](CCCCN)C(=O)O)nn2)C[C@@H](O)[C@@H]1C` [FA-10-16R-Aminoratjadone], the IC50 was 708 nM.
Work on `C/C=C/[C@@H]1O[C@H]([C@@H](/C=C/C=C(\C)C[C@@H](C)/C=C(C)\C=C\[C@H]2CC=CC(=O)O2)NC(=O)OCc2ccc(NC(=O)[C@H](CCCNC(N)=O)NC(=O)[C@@H](NC(=O)OC[C@@H]3[C@@H]4CCc5nnn(CCC[C@H](NC(=O)CC[C@H](NC(=O)CC[C@H](NC(=O)c6ccc(NCc7cnc8nc(N)nc(O)c8n7)cc6)C(=O)O)C(=O)O)C(=O)O)c5CC[C@@H]43)C(C)C)cc2)C[C@@H](O)[C@@H]1C` [FA-7-Val-Cit-PABA-16R-Aminoratjadone] yielded an IC50 of 34.3 nM.
Molecule `C/C=C/[C@@H]1O[C@H]([C@@H](/C=C/C=C(\C)C[C@@H](C)/C=C(C)\C=C\[C@H]2CC=CC(=O)O2)NC(=O)OCCc2cn(-c3ccc(C(=O)NCCCC[C@H](NC(=O)CC[C@H](NC(=O)c4ccc(NCc5cnc6nc(N)nc(O)c6n5)cc4)C(=O)O)C(=O)N[C@H](CCCCN)C(=O)O)cc3)nn2)C[C@@H](O)[C@@H]1C` [FA-8-16R-Aminoratjadone, N^2—((S)-4-(4-(((2-amino-4-hydroxypteridin-6-yl)methyl)amino)benzamido)-4-carboxybutanoyl)-N^6-(4-(4-(2-((((1R,2E,4E,7R,8Z,10E)-1-((2S,4R,5S,6S)-4-hydroxy-5-methyl-6-((E)-prop-1-en-1-yl)tetrahydro-2H-pyran-2-yl)-5,7,9-trimethyl-11-((R)-6-oxo-3,6-dihydro-2H-pyran-2-yl)undeca-2,4,8,10-tetraen-1-yl)carbamoyl)oxy)ethyl)-1H-1,2,3-triazol-1-yl)benzoyl)-L-lysyl-D-lysine] has an IC50 of 129 nM.
Molecule `C/C=C/[C@@H]1O[C@H]([C@@H](/C=C/C=C(\C)C[C@@H](C)/C=C(C)\C=C\[C@H]2CC=CC(=O)O2)NC(=O)OCCc2cn(-c3ccc(C(=O)NCCCC[C@H](NC(=O)CC[C@H](NC(=O)CC[C@H](NC(=O)c4ccc(NCc5cnc6nc(N)nc(O)c6n5)cc4)C(=O)O)C(=O)O)C(=O)O)cc3)nn2)C[C@@H](O)[C@@H]1C` [FA-6-16R-Aminoratjadone, (3S,8S,13S)-1-(4-(((2-amino-4-hydroxypteridin-6-yl)methyl)amino)phenyl)-19-(4-(4-(2-((((1R,2E,4E,7R,8Z,10E)-1-((2S,4R,5S,6S)-4-hydroxy-5-methyl-6-((E)-prop-1-en-1-yl)tetrahydro-2H-pyran-2-yl)-5,7,9-trimethyl-1-((R)-6-oxo-3,6-dihydro-2H-pyran-2-yl)undeca-2,4,8,10-tetraen-1-yl)carbamoyl)oxy)ethyl)-1H-1,2,3-triazol-1-yl)phenyl)-1,6,11,19-tetraoxo-2,7,12,18-tetraazanonadecane-3,8,13-tricarboxylic acid] has an IC50 of 150 nM.
Work on `C/C=C/[C@@H]1O[C@H]([C@@H](/C=C/C=C(\C)C[C@@H](C)/C=C(C)\C=C\[C@H]2CC=CC(=O)O2)NC(=O)OCCc2cn(CCC[C@H](NC(=O)CC[C@H](NC(=O)c3ccc(NCc4cnc5nc(N)nc(O)c5n4)cc3)C(=O)O)C(=O)N[C@H](CCCCN)C(=O)O)nn2)C[C@@H](O)[C@@H]1C` [FA-9-16R-Aminoratjadone, ((S)-2-((S)-4-(4-(((2-amino-4-hydroxypteridin-6-yl)methyl)amino)benzamido)-4-carboxybutanamido)-5-(4-(2-((((1R,2E,4E,7R,8Z,10E)-1-((2S,4R,5S,6S)-4-hydroxy-5-methyl-6-((E)-prop-1-en-1-yl)tetrahydro-2H-pyran-2-yl)-5,7,9-trimethyl-11-((R)-6-oxo-3,6-dihydro-2H-pyran-2-yl)undeca-2,4,8,10-tetraen-1-yl)carbamoyl)oxy)ethyl)-1H-1,2,3-triazol-1-yl)pentanoyl)-D-lysine] yielded an IC50 of 47.6 nM.
Work on `C/C=C/[C@@H]1O[C@H]([C@@H](/C=C/C=C(\C)C[C@@H](C)/C=C(C)\C=C\[C@H]2CC=CC(=O)O2)NC(=O)OCc2ccc(NC(=O)[C@H](CCCNC(N)=O)NC(=O)[C@@H](NC(=O)OC[C@@H]3[C@@H]4CCc5nnn(-c6ccc(C(=O)NCCCC[C@H](NC(=O)CC[C@H](NC(=O)c7ccc(NCc8cnc9nc(N)nc(O)c9n8)cc7)C(=O)O)C(=O)N[C@H](CCCCN)C(=O)O)cc6)c5CC[C@@H]43)C(C)C)cc2)C[C@@H](O)[C@@H]1C` [FA-8-Val-Cit-PABA-16R-Aminoratjadone] yielded an IC50 of 39.9 nM.
Work on `C/C=C/[C@@H]1O[C@H]([C@@H](/C=C/C=C(\C)C[C@@H](C)/C=C(C)\C=C\[C@H]2CC=CC(=O)O2)NC(=O)OCc2ccc(NC(=O)[C@H](CCCNC(N)=O)NC(=O)[C@@H](NC(=O)OC[C@@H]3[C@@H]4CCc5nnn(-c6ccc(C(=O)NCCCC[C@H](NC(=O)CC[C@H](NC(=O)CC[C@H](NC(=O)c7ccc(NCc8cnc9nc(N)nc(O)c9n8)cc7)C(=O)O)C(=O)O)C(=O)O)cc6)c5CC[C@@H]43)C(C)C)cc2)C[C@@H](O)[C@@H]1C` [FA-6-Val-Cit-PABA-16R-Aminoratjadone] yielded an IC50 of 223 nM.
With `C/C=C/[C@@H]1O[C@H]([C@@H](/C=C/C=C(\C)C[C@@H](C)/C=C(C)\C=C\[C@H]2CC=CC(=O)O2)NC(=O)OCCc2cn(CCC[C@H](NC(=O)[C@@H](CC(=O)O)NC(=O)[C@@H](CC(=O)O)NC(=O)[C@@H](CC(=O)O)NC(=O)[C@@H](CC(=O)O)NC(=O)[C@@H](CC(=O)O)NC(=O)CC[C@H](NC(=O)c3ccc(NCc4cnc5nc(N)nc(O)c5n4)cc3)C(=O)O)C(=O)O)nn2)C[C@@H](O)[C@@H]1C` [FA-5-16R-Aminoratjadone] the IC50 was 50.3 nM.
Work on `C/C=C/[C@@H]1O[C@H]([C@@H](/C=C/C=C(\C)C[C@@H](C)/C=C(C)\C=C\[C@H]2CC=CC(=O)O2)NC(=O)OCc2ccc(NC(=O)[C@H](CCCNC(N)=O)NC(=O)[C@@H](NC(=O)OC[C@@H]3[C@@H]4CCc5nnn(CCC[C@H](NC(=O)CC[C@H](NC(=O)c6ccc(NCc7cnc8nc(N)nc(O)c8n7)cc6)C(=O)O)C(=O)N[C@H](CCCCN)C(=O)O)c5CC[C@@H]43)C(C)C)cc2)C[C@@H](O)[C@@H]1C` [FA-9-Val-Cit-PABA-16R-Aminoratjadone] yielded an IC50 of 50.9 nM.
